The target in one assay is benzodiazepine receptor. Briefly: Benzodiazepine receptor binding assay ([^3 H]-diazepam). To be noted: [^3 H]-diazepam 1.5 nM, rat brain crude synaptosome membrane, pH 7.4, 0° C., 20 minutes.
The subject of assay [1] is pentylenetetrazole-induced clonic convulsion. Put plainly: Activity on pentylenetetrazole-induced clonic convulsion (anti-PTZ activity). The format is in vivo, mouse (Std-ddY male). As to conditions: Mus musculus, 2 hours before pentylenetetrazole 85 mg/kg s.c., observed 30 minutes, read-out: Number of mice having antagonistic activity/number of test mice (converted); for responders at 50 mg/kg: 50 mg/kg oral; for responders at 20 mg/kg: 20 mg/kg oral; for responders at 10 mg/kg: 10 mg/kg oral; for responders at 2 mg/kg: 2 mg/kg oral. Here is the method:
Experiment 2 Activity on pentylenetetrazole-induced clonic convulsion (anti-PTZ activity)
The activity on pentylenetetrazole-induced clonic convulsion of the test compound was tested according to the method of E. A. Swinyard (cf. Anticonvulsant Drugs. Mercier, J., Ed., pp. 47-65, Pergamon Press, New York (1973)). In this test, petit real-type antiepileptics and most of benzodiazepine drugs show positive results.
A test compound was administered orally to Std-ddY male mice (weight; 20-25 g, five mice/group). […] When no clonic convulsion was observed, it was determined that the test compound had antagonistic activity.

In general, IC50 refers to the concentration that gives 50% inhibition. The low end stands for greater potency, the high end for weaker potency. With `COc1nnc(-c2cc3c([nH]c2=O)CCN(Cc2ccccc2)C3)o1` [Example 6, 6-benzyl-3-(5-methoxy-1,3,4-oxadiazol-2-yl)-5,6,7,8-tetrahydro-1,6-naphthyridine-2(1H)-one], the IC50 at benzodiazepine receptor was 9.91 nM. In addition, the responders at 50 mg/kg in assay [1] was 100%.
At benzodiazepine receptor, `COc1nnc(-c2cc3c([nH]c2=O)CCN(Cc2ccc(Cl)cc2)C3)o1` [Example 7] registered an IC50 of 13.5 nM. Moreover, the responders at 50 mg/kg in assay [1] is 100%.
`COc1nnc(-c2cc3c([nH]c2=O)CCN(Cc2ccccc2Cl)C3)o1` [Example 10] displayed an IC50 at benzodiazepine receptor of 6.95 nM. Also, in assay [1], the responders at 20 mg/kg is 100%.
Take `COc1nnc(-c2cc3c([nH]c2=O)CCN(Cc2cccc(F)c2)C3)o1` [Example 13]: the responders at 20 mg/kg in assay [1] was 100%.
On the same count and under the same terms, the figure for `COc1cccc(CN2CCc3[nH]c(=O)c(-c4nnc(OC)o4)cc3C2)c1` [Example 17] is 60%.
Regarding `COc1nnc(-c2cc3c([nH]c2=O)CCN(Cc2cccc([N+](=O)[O-])c2)C3)o1` [Example 23], in assay [1], the responders at 10 mg/kg was 80%.
Molecule `COc1nnc(-c2cc3c([nH]c2=O)CCN(Cc2ccccc2Br)C3)o1` [Example 26] registered a half-maximal inhibitory concentration (IC50) at benzodiazepine receptor of 14.1 nM. For the same molecule, the responders at 2 mg/kg in assay [1] was 60%.
For `COc1nnc(-c2cc3c([nH]c2=O)CCN(Cc2cccc(F)c2F)C3)o1` [Example 29], the IC50 at benzodiazepine receptor amounted to 5.46 nM.
For the molecule `COc1nnc(-c2cc3c([nH]c2=O)CCN(Cc2cccc(Cl)c2F)C3)o1` [Example 32], the concentration for half-maximal inhibition (IC50) at benzodiazepine receptor came to 2.49 nM.
Take `COc1nnc(-c2cc3c([nH]c2=O)CCN(Cc2ccccc2C(F)(F)F)C3)o1` [Example 33]: the responders at 10 mg/kg in assay [1] was 80%.
With `COc1nnc(-c2cc3c([nH]c2=O)CCN(Cc2c(F)cccc2F)C3)o1` [Example 35], the responders at 2 mg/kg in assay [1] was 100%.
On the same count and under the same terms, the figure for `COc1nnc(-c2cc3c([nH]c2=O)CCN(Cc2c(F)ccc(F)c2F)C3)o1` [Example 36] is 100%.
`COc1nnc(-c2cc3c([nH]c2=O)CCN(Cc2cc(F)ccc2Br)C3)o1` [Example 38] returned an IC50 on benzodiazepine receptor of 4.55 nM. In assay [1], the responders at 2 mg/kg is 80%.
Take `COc1nnc(-c2cc3c([nH]c2=O)CCN(Cc2cc(F)ccc2Cl)C3)o1` [Example 52]: the IC50 at benzodiazepine receptor came out at 19.3 nM. Also, the responders at 10 mg/kg in assay [1] was 100%.
With `O=c1[nH]c2c(cc1-c1nnc(C3CC3)o1)CN(Cc1ccccc1)CC2` [Example 55, 6-benzyl-3-(5-cyclopropyl-1,3,4-oxadiazol-2-yl)-5,6,7,8-tetrahydro-1,6-naphthyridin-2(1H)-one], the half-maximal inhibitory concentration (IC50) at benzodiazepine receptor was determined as 3.91 nM. Also, the responders at 50 mg/kg in assay [1] was 100%.
The matching figures for `CC(C)c1nnc(-c2cc3c([nH]c2=O)CCN(Cc2ccccc2)C3)o1` [Example 56]: 35.1 nM and 80%.
For the molecule `O=c1[nH]c2c(cc1-c1nnc(-c3ccccc3)o1)CN(Cc1ccccc1)CC2` [Example 58], the IC50 on benzodiazepine receptor amounted to 14.6 nM.
Consider `O=c1[nH]c2c(cc1-c1nnc(-c3cccs3)o1)CN(Cc1ccccc1)CC2` [Example 60], for which, on benzodiazepine receptor, the IC50 was determined as 1.58 nM. Moreover, the responders at 50 mg/kg in assay [1] was 100%.
In turn, `O=c1[nH]c2c(cc1-c1nnc(-c3ccccc3Cl)o1)CN(Cc1ccccc1)CC2` [Example 61] registered an IC50 on benzodiazepine receptor of 6.25 nM.
The same measure, in the same setting: the figure for `CCCc1nnc(-c2cc3c([nH]c2=O)CCN(Cc2ccccc2)C3)o1` [Example 62] is 13.8 nM; for `O=c1[nH]c2c(cc1-c1nnc(-c3ccco3)o1)CN(Cc1ccccc1)CC2` [Example 64] it is 4.09 nM.
As to `Cc1cc(-c2nnc(-c3cc4c([nH]c3=O)CCN(Cc3ccccc3)C4)o2)no1` [Example 66], on benzodiazepine receptor, the IC50 was found to be 10.1 nM. Besides, the responders at 50 mg/kg in assay [1] was 100%.
Consider `Cc1ccc(CN2CCc3[nH]c(=O)c(-c4nnc(C5CC5)o4)cc3C2)cc1` [Example 80], for which the responders at 50 mg/kg in assay [1] is 80%.
Regarding `Cc1cccc(CN2CCc3[nH]c(=O)c(-c4nnc(C5CC5)o4)cc3C2)c1` [Example 81], the IC50 at benzodiazepine receptor worked out at 5.17 nM.
The same measure, in the same setting: the figure for `O=c1[nH]c2c(cc1-c1nnc(C3CC3)o1)CN(Cc1ccc(Cl)cc1)CC2` [Example 82] is 8.98 nM.
Take `O=c1[nH]c2c(cc1-c1nnc(C3CC3)o1)CN(Cc1cccc(Cl)c1)CC2` [Example 83]: the responders at 50 mg/kg in assay [1] was 100%.
On the same count and under the same terms, the figure for `COc1ccc(CN2CCc3[nH]c(=O)c(-c4nnc(C5CC5)o4)cc3C2)cc1` [Example 85] is 80%.
`COc1cccc(CN2CCc3[nH]c(=O)c(-c4nnc(C5CC5)o4)cc3C2)c1` [Example 86] had an IC50 at benzodiazepine receptor of 7.91 nM.
Still for that read-out and setting: the figure for `O=c1[nH]c2c(cc1-c1nnc(C3CC3)o1)CN(Cc1cccc(F)c1)CC2` [Example 88] is 4.62 nM.
As for `O=c1[nH]c2c(cc1-c1nnc(C3CC3)o1)CN(Cc1ccccc1F)CC2` [Example 89], in assay [1], the responders at 50 mg/kg was 100%.
`CCc1nnc(-c2cc3c([nH]c2=O)CCN(Cc2ccccc2)C3)o1` [Example 91] yielded an IC50 at benzodiazepine receptor of 23.1 nM. Moreover, the responders at 50 mg/kg in assay [1] was 100%.
For the molecule `C=C(C)c1nnc(-c2cc3c([nH]c2=O)CCN(Cc2ccccc2)C3)o1` [Example 111, 6-benzyl-3-(5-isopropenyl-1,3,4-oxadazol-2-yl)-5,6,7,8-tetrahydro-1,6-naphthyridin-2(1H)-one], the responders at 50 mg/kg in assay [1] is 100%.
`O=c1[nH]c2c(cc1-c1nnc(C(F)(F)F)o1)CN(Cc1ccccc1)CC2` [Example 115] registered a 50% inhibitory concentration (IC50) on benzodiazepine receptor of 50.3 nM.
In the case of `O=c1[nH]c2c(cc1-c1noc(C3CC3)n1)CN(Cc1ccccc1)CC2` [Example 119, 6-benzyl-3-(5-cyclopropyl-1,2,4-oxadiazol-3-yl)-5,6,7,8-tetrahydro-1,6-naphthyridin-2(1H)-one], the IC50 at benzodiazepine receptor was 1.29 nM. Moreover, the responders at 10 mg/kg in assay [1] was 100%.
The like results for `CCc1nc(-c2cc3c([nH]c2=O)CCN(Cc2ccccc2)C3)no1` [Example 120] were, in that order, 4.4 nM and 90%.
For the molecule `O=c1[nH]c2c(cc1-c1noc(-c3ccccc3)n1)CN(Cc1ccccc1)CC2` [Example 121], the IC50 at benzodiazepine receptor worked out at 62.4 nM.
On benzodiazepine receptor, `Cc1nc(-c2cc3c([nH]c2=O)CCN(Cc2ccccc2)C3)no1` [Example 122] had an IC50 of 5.96 nM. Further, in assay [1], the responders at 10 mg/kg was 100%.
The molecule `O=c1[nH]c2c(cc1-c1noc(-c3cccs3)n1)CN(Cc1ccccc1)CC2` [Example 123] yielded an IC50 at benzodiazepine receptor of 12.5 nM.
Consider `CC(C)c1nc(-c2cc3c([nH]c2=O)CCN(Cc2ccccc2)C3)no1` [Example 124], for which, on benzodiazepine receptor, the IC50 was found to be 5.4 nM. Also, in assay [1], the responders at 10 mg/kg was 60%.
`CCCc1nc(-c2cc3c([nH]c2=O)CCN(Cc2ccccc2)C3)no1` [Example 125] came in with a half-maximal inhibitory concentration (IC50) on benzodiazepine receptor of 8.63 nM.
On the same count and under the same terms, the figure for `O=c1[nH]c2c(cc1-c1nc(-c3ccccc3)no1)CN(Cc1ccccc1)CC2` [Example 141, 6-benzyl-3-(3-phenyl-1,2,4-oxadiazol-5-yl)-5,6,7,8-tetrahydro-1,6-naphthyridin-2(1H)-one] is 22.8 nM.
Take `CCc1noc(-c2cc3c([nH]c2=O)CCN(Cc2ccccc2)C3)n1` [Example 142]: at benzodiazepine receptor, the IC50 was 3.24 nM. Further, the responders at 10 mg/kg in assay [1] is 80%.
The matching figures for `O=c1[nH]c2c(cc1-c1nc(C3CC3)no1)CN(Cc1ccccc1)CC2` [Example 143]: 2.19 nM and 60%.
Take `O=c1[nH]c2c(cc1-c1nc(-c3cccs3)no1)CN(Cc1ccccc1)CC2` [Example 145]: the IC50 on benzodiazepine receptor amounted to 8.64 nM.
As for `CC(C)c1noc(-c2cc3c([nH]c2=O)CCN(Cc2ccccc2)C3)n1` [Example 146], the IC50 on benzodiazepine receptor stood at 9.11 nM.
Same read-out and setting: the figure for `CCCc1noc(-c2cc3c([nH]c2=O)CCN(Cc2ccccc2)C3)n1` [Example 147] is 2.5 nM; for `O=c1[nH]c2c(cc1-c1nc(C3CC3)no1)CN(Cc1ccccc1Cl)CC2` [Example 152] it is 4.9 nM; for `O=c1[nH]c2c(cc1-c1nc(C3CC3)no1)CN(Cc1cccc(Cl)c1)CC2` [Example 153] it is 3.51 nM.
The same measure, in the same setting: the figure for `O=c1[nH]c2c(cc1-c1nc(C3CC3)no1)CN(Cc1ccc(Cl)cc1)CC2` [Example 154] is 11 nM; for `O=c1[nH]c2c(cc1-c1nc(C3CC3)no1)CN(Cc1ccccc1Br)CC2` [Example 155] it is 6.08 nM.
Still for that read-out and setting: the figure for `O=c1[nH]c2c(cc1-c1nc(C3CC3)no1)CN(Cc1cccc(Br)c1)CC2` [Example 156] is 6.68 nM; for `O=c1[nH]c2c(cc1-c1nc(C3CC3)no1)CN(Cc1ccccc1F)CC2` [Example 157] it is 2.71 nM.
Turning to `O=c1[nH]c2c(cc1-c1nc(C3CC3)no1)CN(Cc1cccc(F)c1)CC2` [Example 158], the IC50 on benzodiazepine receptor was found to be 3.73 nM.
The same measure, in the same setting: the figure for `Cc1ccccc1CN1CCc2[nH]c(=O)c(-c3nc(C4CC4)no3)cc2C1` [Example 159] is 8.15 nM.
The same measure, in the same setting: the figure for `Cc1cccc(CN2CCc3[nH]c(=O)c(-c4nc(C5CC5)no4)cc3C2)c1` [Example 160] is 3.75 nM.

The values are drawn from patent publication US5367078A, “3-oxadiazolyl-1,6-naphthyridine derivatives” (Dainippon Pharmaceutical Co., Ltd., priority 1992, dated 1994).
